How the values were obtained:
basophils = assay: Inhibition of basophil activation (BAT, CD63) in ISM patients; type: in vivo, human
Procedure: The BAT was conducted as set forth in Santos (2021) Allergy, 76:2420-2432. Blood from six healthy donors was drawn and Compound 128 was added at various concentrations (10 μM, 3.16 μM, 1 μM, 0.3 μM, 0.1 μM, 0.03 μM, or 0 μM). Blood samples were gently rocked at room temperature for 2 hours, 24 hours, or 48 hours. The BAT assay using the Flow Cast Basophil Activation Kit (Buhlmann Diagnostics; Catalog #B-CCR-STCON) was then conducted following manufacturer instructions by (1) stimulating the blood with anti-FcεR stimulation control in stimulation buffer with IL-3 and staining cells for CCR3 and CD63 for 15 minutes at 37° C., (2) lysing red blood cells and fixing cells with Lysing Reagent at room temperature for 10 minutes, (3) washing cells with Wash Buffer, and (4) acquiring data on a flow cytometer. Activated basophils were defined as CCR3+, low side scatter and CD63+. Percent of activated basophils was calculated as number of activated basophils over the total number of basophils. A four-parameter logistic regression was applied to determine the EC50 and EC90. […]
The BAT assay measuring CD63 used the Flow Cast Basophil Activation Kit method and percent activated basophils were calculated as described in Example 1. Percent inhibition of CD63 activation was calculated as (100−(Sample condition−Unstimulated DMSO control)/(Stimulated DMSO control−Unstimulated DMSO control)×100).

mast cells = assay: Return of degranulation after Compound 128 exposure and washout (FIG. 18); type: cell-based, human; settings: after Compound 128 exposure, flow cytometry
Source text: FIGS. 18A-D show return of degranulation after Compound 128 exposure.

[1] = system: healthy mast cells and ISM mast cells; assay: Potency across healthy mast cells and ISM mast cells (FIG. 16); type: cell-based, human; settings: presence of SCF, NP-IgE sensitization, NP-BSA stimulation
Procedure: Healthy BM-MC donor 0166 and ISM WB-MC 1061-004 17 Jan. 2024 and 17 Oct. 2024. Experiments performed in the presence of SCF. Sensitization and Stimulation: NP-IgE (100 ng/ml) 18 hrs, NP-BSA (0.5 ng/ml) for 15 min at 37° C. (CD63, CD203, pBTK and histamine) or 4 min at RT (Calcium Flux).

## C=CC(=O)N1CCC(F)(CNc2ncnc(N)c2-c2ccc(Oc3ccccc3)cc2)CC1 [Compound 128, 1-(4-(((6-amino-5-(4-phenoxyphenyl)pyrimidin-4-yl)amino)methyl)-4-fluoropiperidin-1-yl)prop-2-en-1-one]
basophils; 100 mg or 150 mg BID
  inhibition of basophil activation: effective in inhibiting basophil activation
basophils; 50, 75, 100 or 150 mg BID versus placebo
  percent inhibition of CD63 activation of basophils, dose dependence: greater inhibition of basophil activation is achieved in ISM patients with greater dosing
Mast cells
  time to restoration of degranulation after inhibition: ≤ 24 h
[1]
  potency in healthy versus ISM mast cells (CD63, CD203, pBTK, histamine, calcium flux): equipotent
